# Where “and” joins values, the source holds several entries; their conditions need not be identical. Equal entries are not always repeated. Entries after “also recorded” stand apart in the source; their conditions may differ.
# Key:
# [1] = tested on: neurofibrillary tangles; experiment: Fluorescence labelling of tangles (sections, ifI tangle suspensions); assay type: binding, human
# Protocol: In ifI suspensions such as this, tangles can be seen by blue fluorescence which is […] from that associated with binding of contaminants in the preparation. […] (a) Chemical labelling with the biotinylated benzothiazole analogue shown as 4b in FIG. 4. PHFs were deposited on a carbon-coated grid after Pronase digestion, and incubated briefly with compound 4b, and then incubated with an anti-biotin antibody preparation that had been conjugated with colloidal gold. […] (b) mAb 423 immunolabelling of isolated PHFs after Pronase digestion., followed by incubation with a gold-conjugated goat anti-mouse second antibody as described in Novak et al. 1993 (Novak M, Kabat J, Wischik C M (1993) “Molecular characterisation of the minimal protease-resistant tau unit of the Alzheimers' disease paired helical filament”, EMBO J. 12: 365-370). As shown in this paper, mAb 423 labels PHFs derived from intracellular tangles (which preserve N-terminal tau immunoreactivity in the fuzzy outer coat) poorly, but Pronase digested PHFs strongly.
# Serial 16 μm sections are cut from the hippocampus of a case dying with clinically and neuropathologically confirmed AD. […]
# A Leitz fluorescence microscope fitted with a photo-multiplyer tube (Model MPV-2) was used to quantitate fluorescence emission. […]
# [2] = target: T1, tau-tau binding (Homo sapiens, UniProt P10636); experiment: Relief of DMMB inhibition of tau-tau binding by ligands (Preparation 2); assay type: biochemical; conditions: for BMax of tau-tau binding: Binding=(BMax×[ligand])/(Kd+[ligand])
# T1 construct: a truncated tau protein corresponding to the core fragment and terminating at Ala390-dGA; dGAE which terminates at Glu-391; made in house; host or cells: E. coli BL21 (DE3), pRK172; DE52 flow-through, P11 phosphocellulose, PEG concentration, no heat step (Preparation 2)
# Excerpt: 2. using tau proteins prepared in this manner for testing putative ligands in the tau-tau binding assay provided in WO96/30766 to identify substances which have minimal or entirely absent activity as tau-aggregation inhibitors or enhance tau-tau binding at high concentrations; 3. testing putative ligands in the presence of an exemplary potent tau-aggregation inhibitor, such as DMMB, at an inhibitory concentration; 4. putative ligands can be identified by the property that they lack capacity to block tau-tau binding through the repeat domain, but block the inhibitory activity of a potent tau-aggregation inhibitor.
# (ii) contacting (a) a tau protein or a derivative thereof containing the tau core fragment bound to a solid phase so as to expose a high affinity tau capture site (e.g. a truncated tau protein corresponding to the core fragment and terminating at Ala390-dGA), with (b) a liquid phase tau protein or derivative thereof capable of binding to the solid phase tau protein or derivative (e.g. dGAE which terminates at Glu-391), and (c) said selected first agent and (d) a second agent known to be tau-tau binding inhibitor, (iii) selecting a first agent which fully or partially relieves the inhibition of binding of the liquid phase tau protein or derivative of (b) to the solid phase tau protein or derivative of (a) by the inhibitor (d).
# Similar results are shown for 15 μM DMMB in the presence of increasing concentrations of Primulin (c) and Thiazin Red (d).
# For each graph, Tau-Tau binding is shown in the presence of constant concentrations of DMMB co-incubated with Primulin at 0×, 1×, 5×, 10×, 100× the DMMB concentrations shown.
# This implies that the Tau-aggregation enhancement effect of these ligands is proportional to the fraction of ligand-binding sites occupied, presumably within the Tau aggregates introduced into the aqueous-phase of the assay. The mean Bmax for both ligands is ˜1.6. That is, the maximum ligand effect is to produce 1.6-fold the Tau-Tau binding signal seen in the absence of any drug. The mean Kd for this effect is ˜15×. That is, for any given concentration of DMMB>4 μM, 50% of maximal enhancement of Tau-Tau binding can be seen when the ligand molar excess is 15-fold relative to the concentration of DMMB.
# [3] = tested on: PHFs; experiment: Spectrofluorometry of primulin in solution and bound to PHFs (ifII); assay type: binding
# Protocol: These measurements were carried out in a Perkin-Elmer spectrofluorimeter (model MPF-3). A concentration of ligand of 0.00001% was routinely used for all measurements. […] All measurements were therefore carried out at a standard excitation wavelength of 370 nm, and a constant slit width of 3 mm.
# Further investigations into the relationship between aggregation-dependent tau ligands and tau aggregation inhibitors were carried out using primulin. Primulin in solution has a fluorescence peak at 520 nm. This shifts to 470 nm when primulin is bound within a pure preparation of PHFs (FIG. 6). […] Therefore, binding by such compounds is dependent on the polymerised state of tau found in the PHF, but is not present in free tau.
# Compounds have been identified which disrupt the structure of the PHF and reverse the proteolytic stability of the PHF core (see WO 96/30766). Examples of such compounds are shown in accompanying FIG. 8. The present inventors have now identified that these compounds bind to tau at a specific binding site within the high affinity tau-tau binding domain.
# [4] = tested on: tau-tau binding; experiment: Solid-phase tau-tau binding assay, tau Preparation 1 (WO96/30766); assay type: biochemical, human
# Excerpt: This point was further examined by studying the potency of typical aggregated tau ligands as tau-aggregation inhibitors. It has been shown previously that tau aggregation inhibitors (e.g. diaminophenothiazines) can be identified on the basis of inhibition of tau-tau binding in a solid-phase assay (WO 96/30766). […] Thus, although these compounds are potent ligands for tau within the PHF-core, they are at most weak inhibitors at the site required for inhibition of tau-tau binding.
# Large-scale purification (1 liter bacterial culture) of tau fragments was carried out as described by Goedert and Jakes (1990, EMBO J., 9, 4225-4230), with minor modifications. Cells were disrupted by rapid freezing of the cell pellet in liquid nitrogen. The pellets were then suspended in buffer containing 50 mM PIPES, 1 mM dithiothreitol (DTT) (pH 6.8). The thermostable proteins in the supernatant were dialysed against PIPES/DTT, then applied to a column containing phosphocellulose equilibrated in the same buffer. […] Fractions were analysed by SDS-PAGE and both Coomassie staining and immunoblotting. […] Protein concentrations were measured by the Lowry method (Harrington C R (1990), “Lowry protein assay containing sodium dodecyl sulphate in microtitre plates for protein determinations on fractions from brain tissue”, Analytical Biochemistry 186: 285-287).
# T1 sequence (P10636 614-708 limits assumed): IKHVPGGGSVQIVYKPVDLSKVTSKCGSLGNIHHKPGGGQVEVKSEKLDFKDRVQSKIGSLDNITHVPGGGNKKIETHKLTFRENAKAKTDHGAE
structure (smiles),measurement,setting,value
Cc1ccc2sc(-c3ccc4sc(-c5ccc(N)cc5)nc4c3)nc2c1S(=O)(=O)[O-].[Na+] [primulin],labelling of tangles,[1],label tangles
same,BMax of tau-tau binding,[2]; 5 μM DMMB,1.38
same,BMax of tau-tau binding,[2]; 25 μM DMMB,1.67
same,reversal of inhibitory effect of DMMB on tau-tau binding,[2]; co-incubation with increasing molar excess of ligand,progressively attenuated and reversed; also recorded: completely reversed
same,excitation peak,[3]; ligand 0.00001%,370 nm
same,fluorescence peak when bound within PHFs,[3]; pure preparation of PHFs,460 nm and 470 nm
same,fluorescence (emission) peak in solution,[3]; unbound,515 nm and 520 nm
same,inhibition of tau-tau binding,[4],weak inhibitors of tau-tau binding

# Reference: patent US8097615B2, “Neurofibrillary labels” (Wista Laboratories Ltd., priority 2001, dated 2012)
